Measured values: patent publication EP4467141A1, “PYRAZOLO-QUINOLINES AS SELECTIVE INHIBITORS OF GENOTOXIC STRESS-INDUCED IKK/NF- KB PATHWAYS FOR CANCER THERAPY” (Max-Delbrück-Centrum für Molekulare Medizin in der …, priority 2023, dated 2024)

Columns and labels:
Test in all cases: Kinase panel study
Type in all cases: biochemical
Details in all cases: read-out: Percentage of inhibition; for inhibition at 1 µM: 1000nM; for inhibition at 10 µM: 10000nM
JAK2 = biological target: T1, JAK2 (Homo sapiens, UniProt O60674)
T1 construct: purchased Thermo Fisher Scientific
T1 sequence (O60674 whole entry): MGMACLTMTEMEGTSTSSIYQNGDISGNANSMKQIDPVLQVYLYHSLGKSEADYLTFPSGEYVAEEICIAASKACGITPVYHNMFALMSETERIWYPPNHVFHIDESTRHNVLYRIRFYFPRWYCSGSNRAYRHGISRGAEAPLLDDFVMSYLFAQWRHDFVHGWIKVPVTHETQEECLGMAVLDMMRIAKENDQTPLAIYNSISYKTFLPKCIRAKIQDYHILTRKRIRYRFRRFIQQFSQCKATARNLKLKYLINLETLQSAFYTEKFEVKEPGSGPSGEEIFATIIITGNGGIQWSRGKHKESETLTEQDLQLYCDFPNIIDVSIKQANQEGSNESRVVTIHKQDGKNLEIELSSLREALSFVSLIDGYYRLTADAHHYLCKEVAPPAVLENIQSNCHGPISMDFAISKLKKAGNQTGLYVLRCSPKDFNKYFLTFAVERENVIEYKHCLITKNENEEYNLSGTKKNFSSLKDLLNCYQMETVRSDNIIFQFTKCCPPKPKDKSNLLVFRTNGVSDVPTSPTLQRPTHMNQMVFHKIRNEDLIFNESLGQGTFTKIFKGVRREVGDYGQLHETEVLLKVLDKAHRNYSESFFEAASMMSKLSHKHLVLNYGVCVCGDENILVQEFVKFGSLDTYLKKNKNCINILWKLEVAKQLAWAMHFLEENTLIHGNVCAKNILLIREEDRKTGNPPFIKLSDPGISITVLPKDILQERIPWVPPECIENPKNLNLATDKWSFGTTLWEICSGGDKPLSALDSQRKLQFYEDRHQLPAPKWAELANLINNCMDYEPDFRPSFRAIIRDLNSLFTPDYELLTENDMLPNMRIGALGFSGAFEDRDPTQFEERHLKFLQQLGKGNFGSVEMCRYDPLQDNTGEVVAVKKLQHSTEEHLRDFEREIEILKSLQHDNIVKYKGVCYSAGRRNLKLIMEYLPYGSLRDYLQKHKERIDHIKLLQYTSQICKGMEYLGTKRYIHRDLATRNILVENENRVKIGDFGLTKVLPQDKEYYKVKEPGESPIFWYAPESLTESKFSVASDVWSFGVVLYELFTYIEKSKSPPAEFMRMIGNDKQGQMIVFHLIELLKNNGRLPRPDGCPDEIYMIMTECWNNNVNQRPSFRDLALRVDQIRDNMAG
How it was run: (§1)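 A commercial kinase profiling service ran the assays according to its ZLyte or Adapta standard protocols. Compound was present at 10 µM or 1 µM, and kinase activity loss was expressed as percent inhibition.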

NEK2 = biological target: T2, NEK2 (Homo sapiens, UniProt P51955)
T2 construct: purchased Thermo Fisher Scientific
T2 sequence (P51955 1-445): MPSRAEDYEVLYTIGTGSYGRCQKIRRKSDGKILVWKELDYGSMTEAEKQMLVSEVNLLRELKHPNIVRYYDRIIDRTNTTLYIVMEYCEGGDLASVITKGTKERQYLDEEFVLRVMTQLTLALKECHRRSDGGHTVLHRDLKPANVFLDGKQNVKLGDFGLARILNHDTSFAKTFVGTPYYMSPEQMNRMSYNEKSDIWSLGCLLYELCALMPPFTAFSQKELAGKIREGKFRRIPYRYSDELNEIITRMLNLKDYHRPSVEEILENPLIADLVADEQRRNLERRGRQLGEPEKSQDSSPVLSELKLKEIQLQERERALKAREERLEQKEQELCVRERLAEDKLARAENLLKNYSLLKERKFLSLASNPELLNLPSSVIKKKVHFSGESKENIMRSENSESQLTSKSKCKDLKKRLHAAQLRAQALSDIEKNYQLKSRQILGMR
How it was run: as §1

NEK9 = biological target: T3, NEK9 (Homo sapiens, UniProt Q8TD19)
T3 construct: purchased Thermo Fisher Scientific
T3 sequence (Q8TD19 1-979): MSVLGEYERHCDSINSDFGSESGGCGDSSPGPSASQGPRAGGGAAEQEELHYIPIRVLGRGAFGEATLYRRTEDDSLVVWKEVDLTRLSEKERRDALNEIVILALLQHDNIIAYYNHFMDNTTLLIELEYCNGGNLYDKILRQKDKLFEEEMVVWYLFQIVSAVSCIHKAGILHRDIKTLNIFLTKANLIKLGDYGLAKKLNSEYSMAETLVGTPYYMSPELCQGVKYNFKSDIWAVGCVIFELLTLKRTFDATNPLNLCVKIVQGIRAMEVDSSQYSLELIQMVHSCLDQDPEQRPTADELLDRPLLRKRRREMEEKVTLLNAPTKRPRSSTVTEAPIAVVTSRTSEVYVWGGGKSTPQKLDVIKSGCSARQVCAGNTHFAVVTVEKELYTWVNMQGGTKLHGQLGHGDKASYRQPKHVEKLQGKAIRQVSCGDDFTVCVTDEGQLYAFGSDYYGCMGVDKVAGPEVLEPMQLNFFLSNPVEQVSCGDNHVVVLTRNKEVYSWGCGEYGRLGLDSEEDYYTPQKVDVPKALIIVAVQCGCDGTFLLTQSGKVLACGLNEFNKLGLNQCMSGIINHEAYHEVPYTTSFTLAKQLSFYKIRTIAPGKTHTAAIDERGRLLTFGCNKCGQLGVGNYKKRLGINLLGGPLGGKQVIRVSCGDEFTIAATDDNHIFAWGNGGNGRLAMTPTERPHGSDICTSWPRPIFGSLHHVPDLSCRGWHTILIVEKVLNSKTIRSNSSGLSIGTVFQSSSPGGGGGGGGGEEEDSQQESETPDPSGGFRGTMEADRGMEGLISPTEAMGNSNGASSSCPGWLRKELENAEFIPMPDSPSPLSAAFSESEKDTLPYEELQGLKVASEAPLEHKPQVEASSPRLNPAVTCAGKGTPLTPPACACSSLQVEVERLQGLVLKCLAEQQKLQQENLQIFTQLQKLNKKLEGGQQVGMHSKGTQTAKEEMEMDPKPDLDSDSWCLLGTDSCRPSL
How it was run: as §1

ZAP70 = biological target: T4, ZAP70 (Homo sapiens, UniProt P43403)
T4 construct: purchased Thermo Fisher Scientific
T4 sequence (P43403 1-619): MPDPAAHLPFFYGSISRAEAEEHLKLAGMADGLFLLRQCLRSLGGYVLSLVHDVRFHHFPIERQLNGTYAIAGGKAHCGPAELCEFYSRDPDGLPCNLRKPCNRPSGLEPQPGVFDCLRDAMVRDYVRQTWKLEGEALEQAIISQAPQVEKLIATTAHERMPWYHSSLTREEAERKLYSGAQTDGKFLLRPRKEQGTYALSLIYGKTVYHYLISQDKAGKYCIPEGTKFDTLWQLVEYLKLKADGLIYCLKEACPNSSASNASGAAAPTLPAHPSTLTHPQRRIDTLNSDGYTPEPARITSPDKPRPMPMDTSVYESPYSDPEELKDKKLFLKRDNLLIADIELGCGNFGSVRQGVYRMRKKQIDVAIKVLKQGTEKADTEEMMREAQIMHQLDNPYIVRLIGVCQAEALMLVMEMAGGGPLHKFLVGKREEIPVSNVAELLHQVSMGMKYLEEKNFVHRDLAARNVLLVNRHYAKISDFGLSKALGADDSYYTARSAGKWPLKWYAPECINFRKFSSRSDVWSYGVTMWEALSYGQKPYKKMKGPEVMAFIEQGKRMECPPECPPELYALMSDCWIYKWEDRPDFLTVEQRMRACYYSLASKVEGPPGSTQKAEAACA
How it was run: as §1

With `COc1ccc2c(c1OC)c(=O)n1c3ccc(O)cc3c3ccnc2c31` [MW01, 5-Hydroxy-10,11-dimethoxy-9H-benzo[c]indolo[3,2,1-ij][1,5]naphthyridin-9-one] the inhibition at 1 µM (JAK2) was 15%, the inhibition at 10 µM (JAK2) was 48% and the inhibition at 1 µM (NEK2) was -4%. It also gave an inhibition at 10 µM (NEK2) of 0%, an inhibition at 1 µM (NEK9) of 4% and an inhibition at 10 µM (NEK9) of 9%. The inhibition at 1 µM (ZAP70) was 12% and the inhibition at 10 µM (ZAP70) was 16%.

With `COc1ccc2cc3c(N)nn(C(=O)c4cccc(N(C)C)c4)c3nc2c1` [MW05, (3-Amino-7-methoxypyrazolo[3,4-b]quinolin-1-yl)-[3-(dimethylamino)phenyl]methanone] the inhibition at 1 µM (JAK2) was -3%, the inhibition at 10 µM (JAK2) was -20% and the inhibition at 1 µM (NEK2) was -3%. For the same molecule, the inhibition at 10 µM (NEK2) was 1%, the inhibition at 1 µM (NEK9) was 6% and the inhibition at 10 µM (NEK9) was 5%. The inhibition at 1 µM (ZAP70) was 15% and the inhibition at 10 µM (ZAP70) was 11%.
